Values quoted from earlier work as cited in US20170135989A1, “ALLISARTAN ISOPROXIL SOLID DISPERSION AND PHARMACEUTICAL COMPOSITION” (SHENZHEN SALUBRIS PHARMACEUTICALS CO., LTD, priority 2014, published 2017).

Experiments:
[1] = from CN200680000397.8
[2] = target: T1, angiotensin II receptor (Homo sapiens, UniProt P30556); conditions: from CN200680000397.8; compared with products of the same type (such as losartan)
T1 sequence (P30556 1-359): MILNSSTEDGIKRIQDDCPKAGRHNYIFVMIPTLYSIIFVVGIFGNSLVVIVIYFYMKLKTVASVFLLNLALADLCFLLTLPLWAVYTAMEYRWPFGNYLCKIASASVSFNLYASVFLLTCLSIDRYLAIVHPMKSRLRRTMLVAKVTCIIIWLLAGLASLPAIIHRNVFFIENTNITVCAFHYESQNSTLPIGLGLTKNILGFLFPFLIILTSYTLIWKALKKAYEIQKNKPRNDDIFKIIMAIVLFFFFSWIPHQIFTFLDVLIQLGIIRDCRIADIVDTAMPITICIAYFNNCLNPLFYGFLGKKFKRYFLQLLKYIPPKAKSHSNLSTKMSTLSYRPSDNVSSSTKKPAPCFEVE

Which Solubility in water does the source give for `CCCCc1nc(Cl)c(C(=O)OCOC(=O)OC(C)C)n1Cc1ccc(-c2ccccc2-c2nnn[nH]2)cc1` [Allisartan isoproxil, 2-butyl-4-chloro-1-[2′-(1H-tetrazol-5-yl)-1,1′-biphenyl-methyl]-imidazole-5-carboxylic acid, 1-[(isopropoxy)-carbonyloxy]-, methyl ester] here?
The Solubility in water was “low”.

And the Toxicity [1]?
Its Toxicity is “low toxicity”.

And the Antihypertensive effect [2]?
The Antihypertensive effect was “better antihypertensive effect than products of the same type”.
